Reference: patent publication US6514911B1, “Substituted oxadiazines useful as pesticides” (Uniroyal Chemical Company, Inc., priority 2002, dated 2003)

Key:
[1] = test system: velvetleaf (Abutilon theophrasti Medik.) (VL); assay: Preemergence herbicide test, soil drench, velvetleaf; assay type: in vivo; details: 10 lbs/A (11.2 kg/ha) soil drench, two weeks after treatment, vs untreated checks; for pest or weed control at 11208.5 g/ha: Abutilon theophrasti, 336 h, read-out: Percent Weed Control VL
Procedure: (§1) To illustrate the effectiveness of the previously described substituted oxadiazines of this invention as preemergence herbicides, 300 mg of the chemical was dissolved in a composition comprising 10 mL acetone to which 30 mg of tile emulsifying agent, ethoxylated sorbitan monolaurate, was added. The solution was diluted to 100 mL with distilled water. Ten milliliters of this 3000 ppm solution was diluted to 250 ppm with distilled water. The chemical was applied at the rate of 10 pounds/acre (11.2 kg/ha) by drenchings 46 mL of the 250 ppm solution on the surface of soil in 4½ inch (11.25 cm) plastic pots wherein seeds of the following weeds had been planted: velvetleaf (Abutilon theophrasti Medik.) (VL), The percent control of the weeds compared to untreated checks was determined two weeks after treatment. TABLE 1 summarizes the results achieved with compounds formulated as indicated above, and the data clearly indicate the good to excellent herbicidal efficacy of compositions of this invention.

[2] = test system: jimsonweed (Datura stramonium L.) (JW); assay: Preemergence herbicide test, soil drench, jimsonweed; assay type: in vivo; details: 10 lbs/A (11.2 kg/ha) soil drench, two weeks after treatment, vs untreated checks
Procedure: as §1, with “jimsonweed (Datura stramonium L.) (JW),” for “velvetleaf (Abutilon theophrasti Medik.) (VL),”

[3] = test system: tall morningglory (Ipomoea purpurea (L.) Roth) (TM); assay: Preemergence herbicide test, soil drench, tall morningglory; assay type: in vivo; details: 10 lbs/A (11.2 kg/ha) soil drench, two weeks after treatment, vs untreated checks; for pest or weed control at 11208.5 g/ha: Ipomoea, 336 h, read-out: Percent Weed Control TM
Procedure: as §1, with “tall morningglory (Ipomoea purpurea (L.) Roth) (TM),” for “velvetleaf (Abutilon theophrasti Medik.) (VL),”

[4] = test system: barnyardgrass (Echinochloa crus-galli (L.) Beauv.) (BG); assay: Preemergence herbicide test, soil drench, barnyardgrass; assay type: in vivo; details: 10 lbs/A (11.2 kg/ha) soil drench, two weeks after treatment, vs untreated checks; for pest or weed control at 11208.5 g/ha: Echinochloa crus-galli, 336 h, read-out: Percent Weed Control BG
Procedure: as §1, with “barnyardgrass (Echinochloa crus-galli (L.) Beauv.) (BG), and” for “velvetleaf (Abutilon theophrasti Medik.) (VL),”

[5] = test system: switchgrass (Panicum virgahim L.) (SG); assay: Preemergence herbicide test, soil drench, switchgrass; assay type: in vivo; details: 10 lbs/A (11.2 kg/ha) soil drench, two weeks after treatment, vs untreated checks; for pest or weed control at 11208.5 g/ha: Panicum, 336 h, read-out: Percent Weed Control SG
Procedure: as §1, with “planted:” for “planted: velvetleaf (Abutilon theophrasti Medik.) (VL), The percent control of the weeds compared to untreated checks was determined two weeks after treatment. TABLE 1 summarizes the results achieved with compounds formulated as indicated above, and the data clearly indicate the good to excellent herbicidal efficacy of compositions of this invention.”
switchgrass (Panicum virgahim L.) (SG),
(§2) The percent control of the weeds compared to untreated checks was determined two weeks after treatment. TABLE 1 summarizes the results achieved with compounds formulated as indicated above, and the data clearly indicate the good to excellent herbicidal efficacy of compositions of this invention.

[6] = test system: green foxtail (Setaria virdis (L.) Beauv.) (GF); assay: Preemergence herbicide test, soil drench, green foxtail; assay type: in vivo; details: 10 lbs/A (11.2 kg/ha) soil drench, two weeks after treatment, vs untreated checks; for pest or weed control at 11208.5 g/ha: Setaria, 336 h, read-out: Percent Weed Control GF
Procedure: as §1, with “41⁄2” for “4½”, “green foxtail (Setaria […].) Beauv.) (GF).” for “velvetleaf (Abutilon theophrasti Medik.) (VL),”

insects = assay: Insecticidal properties (no method given); details: statement in words, no test details
[7] = test system: prickly sida (Sida spinosa L.) (PS); assay: Preemergence herbicide test, soil drench, prickly sida; assay type: in vivo; details: Sida spinosa, 336 h, 10 lbs/A (11.2 kg/ha) soil drench, two weeks after treatment, vs untreated checks, read-out: Percent Weed Control PS
Procedure: To illustrate the effectiveness of the previously described substituted oxadiazines of this invention as preemergence herbicides, 300 mg of the chemical was dissolved in a composition comprising 10 mL acetone to which 30 mg of tile emulsifying agent, ethoxylated sorbitan monolaurate, was added. The solution was diluted to 100 mL with distilled water. Ten milliliters of this 3000 ppm solution was diluted to 250 ppm with distilled water. […]
prickly sida (Sida spinosa L.) (PS),
as §2

| SMILES | Percent Weed Control VL [1] | Percent Weed Control JW [2] | Percent Weed Control TM [3] | Percent Weed Control BG [4] | Percent Weed Control SG [5] | Percent Weed Control GF [6] | insecticidal properties (insects) | pest or weed control at 11208.5 g/ha [1] | pest or weed control at 11208.5 g/ha [7] | pest or weed control at 11208.5 g/ha [3] | pest or weed control at 11208.5 g/ha [4] | pest or weed control at 11208.5 g/ha [5] | pest or weed control at 11208.5 g/ha [6] |
| --- | --- | --- | --- | --- | --- | --- | --- | --- | --- | --- | --- | --- | --- |
| FC(F)(F)c1cccc(C2=NC(C(F)(F)F)(C(F)(F)F)N=C(C(F)(F)C(F)(F)F)O2)c1 [Compound 14, 2-(pentafluoroethyl)-4,4-bis(trifluoromethyl)-6-{(3-trifluoromethyl)phenyl}-4H-1,3,5-oxadiazine] | 100% | 100% | 100% | 100% | 100% | 100% | found to have insecticidal properties | – | – | – | – | – | – |
| FC(F)(F)C(F)(F)C(F)(F)C1=NC(C(F)(F)F)(C(F)(F)F)N=C(c2ccccc2)O1 [2-(heptafluoropropyl)-6-phenyl-4,4-bis(trifluoromethyl)-4H-1,3,5-oxadiazine, reference compound] | – | 0% | – | – | – | – | – | 0% | 0% | 0% | 0% | 0% | 0% |
| FC(F)(F)C(F)(F)C1=NC(C(F)(F)F)(C(F)(F)F)N=C(c2cc(Cl)cc(Cl)c2)O1 [Compound 21, 2-(3,5-dichlorophenyl)-6-(pentafluoroethyl)-4,4-bis(trifluoromethyl)-4H-1,3,5-oxadiazine] | – | 100% | – | – | – | – | – | 100% | – | 100% | 100% | 100% | 100% |
| FC(F)(F)Oc1ccc(C2=NC(C(F)(F)F)(C(F)(F)F)N=C(C(F)(F)C(F)(F)F)O2)cc1 [Compound 16, 2-(pentafluoroethyl)-6-{(4-trifluoromethoxy)phenyl}-4,4-bis(trifluoromethyl)-4H-1,3,5-oxadiazine] | 100% | 100% | 100% | 100% | 100% | 100% | found to have insecticidal properties | – | – | – | – | – | – |
| FC(F)(F)C(F)(F)C(F)(F)C1=NC(C(F)(F)F)(C(F)(F)F)N=C(c2cccc(Cl)c2)O1 [Compound 26, 2-(3-chlorophenyl)-6-(heptafluoropropyl)-4,4-bis(trifluoromethyl)-4H-1,3,5-oxadiazine] | – | 100% | – | – | – | – | found to have insecticidal properties | 100% | – | 100% | 100% | 100% | 100% |
| COc1cccc(C2=NC(C(F)(F)F)(C(F)(F)F)N=C(C(F)(F)C(F)(F)F)O2)c1 [Compound 23, 2-(3-methoxyphenyl)-6-(pentafluoroethyl)-4,4-bis(trifluoromethyl)-4H-1,3,5-oxadiazine] | – | 100% | – | – | – | – | – | 100% | – | 100% | 0% | 50% | 50% |
| FC(F)(F)C1=NC(C(F)(F)F)(C(F)(F)F)N=C(c2ccccc2C(F)(F)F)O1 [Compound 6, 2,4,4-tris(trifluoromethyl)-6-{(2-trifluoromethyl)phenyl}-4H-1,3,5-oxadiazine] | 100% | 75% | 100% | 50% | 75% | 100% | – | – | – | – | – | – | – |
